In ChEMBL document CHEMBL1141990, “Effects of suberoylanilide hydroxamic acid and trichostatin A on induction of cytochrome P450 enzymes and benzo[a]pyrene DNA adduct formation in human cells” (2005) one finds Fold change and Activity data, which are given here for three compounds.

Format in all cases: functional
For experiment [1], the system named is MCF7. As to the kind of experiment: Average fold change in expression of CYP1A1 after treatment with compound of concentration 1 mM in human MCF-7 cells.
The subject of experiment [2] is MCF7. The experiment is described as follows: Average fold change in expression of CYP1A1 after treatment with compound of concentration 0.01 mM in human MCF-7 cells.
The subject of experiment [3] is MCF7. As to the kind of experiment: Average fold change in expression of CYP1B1 after treatment with compound of concentration 1 mM in human MCF-7 cells.
Experiment [4] deals with MCF7. As to the kind of experiment: Average fold change in expression of CYP1B1 after treatment with compound of concentration 0.01 mM in human MCF-7 cells.
Experiment [5] relates to MCF7. As to the kind of experiment: Average fold change in expression of CYP1B1 after treatment with compound of concentration 0.1 mM in human MCF-7 cells.
Experiment [6] concerns MCF7. As to the kind of experiment: Average fold change in expression of CYP1A1 after treatment with compound of concentration 0.1 mM in human MCF-7 cells.
Experiment [7] relates to MCF7. The experiment is described as follows: Mean B[a]P DNA binding at 4 uM after co-treatment with compound and SAHA (2 uM) in human MCF-7 cells.
Experiment [8] relates to MCF7. As to the kind of experiment: Average fold change in expression of CYP1A1 after co-treatment with compound of concentration 1 mM in human MCF-7 cells.
Experiment [9] has as its system MCF7. As to the kind of experiment: Average fold change in expression of CYP1B1 after co-treatment with compound of concentration 1 mM in human MCF-7 cells.
The test system of experiment [10] is MCF7. As to the kind of experiment: Mean B[a]P DNA binding at 4 uM after co-treatment with compound and TSA (2 uM) in human MCF-7 cells.
In experiment [11] the test system is MCF7. The experiment is described as follows: Average fold change in expression of CYP1A1 at 1 mM after co-treatment with compound and TSA in human MCF-7 cells.
The subject of experiment [12] is MCF7. The experiment is described as follows: Average fold change in expression of CYP1B1 at 1 mM after co-treatment with compound and SAHA in human MCF-7 cells.
Experiment [13] relates to MCF7. The experiment is described as follows: Mean B[a]P DNA binding at 4 uM in human MCF-7 cells.
Experiment [14] deals with MCF7. The experiment is described as follows: Average fold change in expression of CYP1B1 at 1 mM after co-treatment with compound and TSA in human MCF-7 cells.
The subject of experiment [15] is MCF7. As to the kind of experiment: Average fold change in expression of CYP1A1 at 1 mM after co-treatment with compound and SAHA in human MCF-7 cells.

In the case of `O=C(CCCCCCC(=O)Nc1ccccc1C(=O)NO)Nc1ccccc1`, the Fold change in experiment [1] is 0.98; in experiment [2], 0.77; in [3] it was 1.58; in experiment [4] it was 1.1; in [5], 1.62; in experiment [6], 2.86.

On to `c1ccc2c(c1)cc1ccc3cccc4ccc2c1c34` [BENZO[DEF]CHRYSENE], for which the Activity in experiment [7] was 52.18 pmol adducts/mg DNA; in experiment [10] it was 54.15 pmol adducts/mg DNA; in [13], 34.75 pmol adducts/mg DNA. The Fold change in experiment [1] was 25.24; in experiment [8] it was 25.55; in experiment [9], 4.39; in experiment [2] it was 1.85; in experiment [3], 4.35; in experiment [4], 1.36. Moreover, the Fold change worked out at 8.77 in experiment [11]; 1.7 in experiment [5]; 2.4 in experiment [12]; 3.69 in experiment [6]; 1.02 in [14]; 22.92 in experiment [15].

`CC(/C=C/C(=O)NO)=C\[C@@H](C)C(=O)c1ccc(N(C)C)cc1` [TRICHOSTATIN]: the Fold change in experiment [1] was 3.1; in experiment [2], 0.77; in [3], 0.17; in [4] it was 1.29; in experiment [5] it was 1.57; in [6], 0.81.
